Laboratory results published in patent publication US3974187A, “Synthetic analogs having the activity of naturally occurring forms of coenzyme Q” (priority 1975, dated 1976).

Assays:
[1] = tested on: succinoxidase system of beef heart mitochondria; assay: CoQ activity: restoring succinoxidase activity of pentane-extracted beef heart mitochondria (manometric); type: biochemical; set-up: key to CoQ10 Act. Index: activity index relative to CoQ10 standard; conditions: for Activation at 400 nMoles %: 400 nmoles of analog, relative to the response to 400 nmoles CoQ10; for Maximum Activation: 400 nm of analog per flask, percent of the response to CoQ4; for CoQ10 Act. Index: calculated from relative effectiveness, activity in terms of that of CoQ10; for Estimated nMoles Required for 50% Activation: level required to reinstate approximately 50% of maximum succinoxidase activity, 0.65-0.85 mg PEBHM; for Relative Effectiveness: molar amounts of analog and CoQ4 required to restore the same level of succinoxidase to PEBHM, relative to CoQ4; for effectiveness / utilization in the succinoxidase mitochondrial system / ability to elicit maximum activation of succinoxidase: interpretation of Table II
Description: The CoQ activity of each analog was assessed by examining the ability of the analog to stimulate the succinoxidase activity of beef-heart mitochondria (BHM) from which the naturally occurring CoQ had been removed by pentane extraction. (Table I) Beef heart mitochondria were prepared by the method of Smith (Methods Enzymol., 10, 81 (1967). The pentane extraction was conducted as described by Szarkowska (Arch. Biochem. Biophys., 113, 519 (1966); PEBHM was frozen and used within 10 days of preparation, since pentane extraction decreases the stability of BHM. Succinoxidase activity was determined manometercally, using a Gilson differential respirometer (Iwamoto, Y., Hansen, I. L., Porter, T. H., and Folkers, K., Biochem. Biophys. Res. Comm., 58, 633 (1974), and is reported as […] of oxygen per minute per milligram of protein. A commercial soybean phospholipid preparation (Asolectin), dispersed by sonication (Fleischer, S. and Fleischer, B., Methods Enzymol., 10, 421 (1967), was used to provide phospholipid micelles, and test substances were added as solutions in ethanol. Within Table I are listed the CoQ activities of the analogs and selected reference compounds. The CoQ10 Activity Index is a measure of the effectiveness of the analogs, relative to the standard, in stimulating a submaximal response of succinoxidase activity. Specific activity of the succinoxidase system in response to stimulation by exogenous CoQ10 is given in footnote a of the Table. The quantity of analog to be added was chosen to provide a level of succinoxidase activity corresponding to the nearly linear portion of the activity: dose curve, in which succinoxidase activity stimulated is approximately proportional to the level of analog used. The second column lists the nanomolar quantity of analog required to provide a stimulation of about half of the maximum response. The relative response of the succinoxidase system to 400 nmol of each analog is listed in the third column of the Table. This level of analog is sufficient to insure significant excess over the stoichiometric amount, and maximum response to CoQ4 is obtained at one-tenth to one-twentieth of this dose level. The response to 400 nmol of CoQ10 is lower than is the response to other components listed. The very long side-chain of CoQ10, the natural coenzyme, may hinder the transport of exogenous CoQ10 to the active site.

[2] = tested on: oxidative phosphorylation at site I (ETPH particles); assay: Assay of CoQ and analogs for oxidative phosphorylation at site I with ETPH particles; type: biochemical; set-up: Δ NADH / Δ G6P: unit not given here; conditions: for P/NADH Ratio / Δ G6P / Δ NADH / μmoles NADH /min/mg / μmoles NADH min/mg +Rotenone / % Inhibition by Rotenone: CoQ or analog 0.12 nM (footnote 0.12 mM); for μmoles NADH /min/mg: 200 μg ETPH particles, no rotenone; for μmoles NADH min/mg +Rotenone / % Inhibition by Rotenone: rotenone 2 μM
Description: Assays were performed with 200 μg of ETPH particles as described by
Schatz and Racker (J. Biol. Chem., 241, 1429 (1966)). The concentration o
the CoQ compounds was 0.12 mM. Rotenone was added at 2 μM

complex III = complex III (Bos taurus, UniProt P00157+P13272); assay: Reduction of cytochrome c by reduced CoQ and analogs catalyzed by complex III; type: biochemical; conditions: for nMoles Cytochrome c Reduced/min / Non-enzymatic Rate of Cytochrome c Reduction: 10 μM reduced CoQ or analog; for nMoles Cytochrome c Reduced/min: 2 μg complex III, 8 μM cytochrome c; for Non-enzymatic Rate of Cytochrome c Reduction: blank without complex III; for % Inhibition by Antimycin A: antimycin A 1 μg/ml
Description: Reduction of cytochrome c was measured at 550-540 nm. The reaction mixtur
contained in 1.0 ml: […] KP1, pH 7.5; 0.05 mM EDTA; 8 μM
cytochrome c1; 10 μM reduced CoQ or analog and 2 μg complex
III. When indicated, antimycin A was added to the assay medium at 1
μg/ml. An extinction coefficient of 19 mM^-^1 was used for […]

Chemical stability = type: physicochemical; conditions: compared with CoQ1 and CoQ2
[3] = literature / general knowledge; cited from earlier work

Activation at 400 nMoles % [1] [%] | Maximum Activation [1] [%] | CoQ10 Act. Index [1] | Estimated nMoles Required for 50% Activation [1] [nmol] | Relative Effectiveness [1] [%] | SMILES | further results
123 | 96 | 5.8 | 7.1 | 28 | CCCCCCCCC=CCCCCCCCCCC1=C(C)C(=O)C(OC)=C(OC)C1=O [10'-Nonadecenyl, 2,3-Dimethoxy-5-methyl-6-(10'-nonadecenyl)-1,4-benzoquinone] | –
123 | 96 | 7.3 | 5.7 | 35 | CCCCCC=CCC=CCCCCCCCCCC1=C(C)C(=O)C(OC)=C(OC)C1=O [10', 13'-Nonadecadienyl] | –
122 | 95 | 9.0 | 4.7 | 43 | CCCCCC=CCC=CCCCCCCCC1=C(C)C(=O)C(OC)=C(OC)C1=O [8', 11'-Heptadecadienyl, 2,3-Dimethoxy-5-methyl-6-(8',11'-heptadecadienyl)-1,4-benzoquinone] | –
128 | 100 | 10.2 | 4.1 | 49 | CCC=CCC=CCC=CCCCCCCCCCC1=C(C)C(=O)C(OC)=C(OC)C1=O [10', 13', 16'-Nonadecatrienyl, 2,3-Dimethoxy-5-methyl-6-(10',13' ,16'-nonadecatrienyl)-1,4-benzoquinone] | –
119 | 93 | 11.1 | 3.4 | 58 | CCCCCCC=CCCCCCCCC1=C(C)C(=O)C(OC)=C(OC)C1=O [8'-Pentadecenyl] | –
121 | 94 | 5.8 | 7.1 | 28 | CCCCCCCCC=CCCCCCCCC1=C(C)C(=O)C(OC)=C(OC)C1=O [8'-Heptadecenyl, 2,3-Dimethoxy-5-methyl-6-(8'-heptadecenyl)-1,4-benzoquinone] | –
123 | 96 | 12.5 | 3.3 | 60 | CCC=CCC=CCC=CCCCCCCCC1=C(C)C(=O)C(OC)=C(OC)C1=O [8', 11', 14'-Heptadecatrienyl, 2,3 -Dimethoxy-5-methyl-6-(8',11',14'-heptadecatrienyl)-1,4-benzoquinone] | –
79 | 62 | 0.9 | 44.4 | 4.5 | CCCCCCCCCCCCCCCCCCCCC1=C(C)C(=O)C(OC)=C(OC)C1=O [Eicosyl, 2,3-Dimethoxy-5-methyl-6-n-eicosyl-1,4-benzoquinone] | ability to elicit maximum activation of succinoxidase [1]: cannot stimulate maximum activation

The next lines start with the compound.

SMILES | Activation at 400 nMoles % [1] [%] | Maximum Activation [1] [%] | CoQ10 Act. Index [1] | Estimated nMoles Required for 50% Activation [1] [nmol] | Relative Effectiveness [1] [%] | further results
COC1=C(OC)C(=O)C(C/C=C(\C)CC/C=C(\C)CC/C=C(\C)CC/C=C(\C)CC/C=C(\C)CC/C=C(\C)CCC=C(C)C)=C(C)C1=O [CoQ7, reference compound] | 115 | 90 | 1.7 | 24.4 | 8.2 | –
CCCCCC1=C(C)C(=O)C(OC)=C(OC)C1=O [Pentyl, 2,3-Dimethoxy-5-methyl-6-pentyl-1,4-benzoquinone] | 110 | 86 | 1.2 | 35.1 | 5.7 | effectiveness / utilization in the succinoxidase mitochondrial system [1]: about as little effective as coenzyme Q10 itself; P/NADH Ratio [2]: 0.44; Δ G6P [2]: 0.036; Δ NADH [2]: 0.082; μmoles NADH /min/mg [2]: 0.47 μmoles NADH /min/mg; μmoles NADH min/mg +Rotenone [2]: 0.02 μmoles NADH min/mg; biochemical effectiveness in the site I assay system ([2]; compared with CoQ1): as biochemically effective as CoQ1; % Inhibition by Rotenone [2]: 95%; nMoles Cytochrome c Reduced/min (complex III): 14.6 nmol/min; Non-enzymatic Rate of Cytochrome c Reduction (complex III): 0.2 nmol/min; response of complex III system to the reduced analog as substrate (complex III; after reduction and extraction): excellent substrates; % Inhibition by Antimycin A (complex III): 100%; chemical stability (Chemical stability; listed as 6-n-pentyl): superior to CoQ1 and CoQ2 in chemical stability; chemical stability (Chemical stability; listed as PB): apparent greater stability
CC(C)=CCC/C(C)=C/CC/C(C)=C/CC1=CC(=O)C(C)=C(C)C1=O [plastoquinone-3] | – | – | – | – | – | chemical stability of isoprenoid quinones [3]: extremely unstable
COC1=C(OC)C(=O)C(C/C=C(\C)CC/C=C(\C)CC/C=C(\C)CCC=C(C)C)=C(C)C1=O [CoQ4, reference compound] | 128 | 100 | 20.8 | 2.0 | 100 | amount giving full restoration of activity of succinoxidase in PEBHM [1]: more than 20 nmoles; maximum activity of succinoxidase in PEBHM ([1]; full restoration, more than 20 nmoles of CoQ4): 0.700 μatm O2 /mg protein min; ability to elicit maximum activation of succinoxidase [1]: can elicit maximum activation; effectiveness / utilization in the succinoxidase mitochondrial system [1]: effectively utilized
COC1=C(OC)C(=O)C(CC=C(C)C)=C(C)C1=O [Q1, reference compound] | – | – | – | – | – | P/NADH Ratio [2]: 0.522; Δ G6P [2]: 0.046; Δ NADH [2]: 0.088; μmoles NADH /min/mg [2]: 0.45 μmoles NADH /min/mg; μmoles NADH min/mg +Rotenone [2]: 0.03 μmoles NADH min/mg; % Inhibition by Rotenone [2]: 93%; nMoles Cytochrome c Reduced/min (complex III): 12.4 nmol/min; Non-enzymatic Rate of Cytochrome c Reduction (complex III): 0.6 nmol/min; % Inhibition by Antimycin A (complex III): 100%; chemical stability of isoprenoid quinones [3]: relative chemical instability
COC1=C(OC)C(=O)C(C/C=C(\C)CCC=C(C)C)=C(C)C1=O [Q2, reference compound] | – | – | – | – | – | P/NADH Ratio [2]: 0.57; Δ G6P [2]: 0.045; Δ NADH [2]: 0.079; μmoles NADH /min/mg [2]: 0.25 μmoles NADH /min/mg; μmoles NADH min/mg +Rotenone [2]: 0.02 μmoles NADH min/mg; % Inhibition by Rotenone [2]: 92%; nMoles Cytochrome c Reduced/min (complex III): 27.4 nmol/min; Non-enzymatic Rate of Cytochrome c Reduction (complex III): 0.2 nmol/min; % Inhibition by Antimycin A (complex III): 98%; chemical stability of isoprenoid quinones [3]: relative chemical instability
CCCCCC=CCC=CCC=CCC=CCCCC1=C(C)C(=O)C(OC)=C(OC)C1=O [4', 7', 10', 13'-Nonadecatetraenyl, 2,3-Dimethoxy-5-methyl-6-(4',7',10',13'-nonadecatetraenyl)-1,4-benzoquinone] | 118 | 92 | 7.7 | 5.4 | 37 | –
